Assay results from paper PMC12645437, “Orthogonal IMiD-Degron Pairs Induce Selective Protein Degradation in Cells” (ACS Chemical Biology, 2025).

How the values were obtained:
[1] = test system: library of 8380 IKZF3 degrons fused to EGFP in Jurkat cells; experiment: Pooled mutant ZF degron library screen (FACS EGFPlow vs EGFP+, NGS), 18 h; assay type: cell-based, human;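 for logFC: Log2 fold change of EGFPlow over EGFP+ representation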
[2] = target: T1, Q147A mutant degron (ANQS) fused to EGFP (Homo sapiens, UniProt Q96SW2+Q9UKT9, Q147A); experiment: Ratiometric EGFP:mCherry flow cytometry degradation assay, 18 h; assay type: cell-based; conditions: Jurkat, read-out: DMax Q147A/%
T1 construct: pLVX-Sprout-IKZF3 130-189aa Q147A (ANQS); expressed in transfected cells
T1 sequence (Q9UKT9 130-189 Q147A): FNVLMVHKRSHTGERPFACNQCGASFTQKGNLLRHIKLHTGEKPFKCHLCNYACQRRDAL
T1 sequence (Q96SW2 whole entry, the tested form may be a part): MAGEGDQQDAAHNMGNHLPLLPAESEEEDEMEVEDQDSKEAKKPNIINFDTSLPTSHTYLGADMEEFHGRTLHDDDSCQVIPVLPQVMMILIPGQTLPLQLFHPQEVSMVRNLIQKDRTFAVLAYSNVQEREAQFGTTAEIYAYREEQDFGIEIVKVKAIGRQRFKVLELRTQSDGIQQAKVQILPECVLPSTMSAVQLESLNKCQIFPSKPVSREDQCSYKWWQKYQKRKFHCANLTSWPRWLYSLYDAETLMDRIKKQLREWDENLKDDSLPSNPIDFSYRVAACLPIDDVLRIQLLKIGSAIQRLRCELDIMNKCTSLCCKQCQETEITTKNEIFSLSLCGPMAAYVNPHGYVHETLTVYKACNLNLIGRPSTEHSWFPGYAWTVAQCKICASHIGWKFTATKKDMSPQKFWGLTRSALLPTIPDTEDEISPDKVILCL
T1 sequence (Q16531 whole entry partner, the tested form may be a part): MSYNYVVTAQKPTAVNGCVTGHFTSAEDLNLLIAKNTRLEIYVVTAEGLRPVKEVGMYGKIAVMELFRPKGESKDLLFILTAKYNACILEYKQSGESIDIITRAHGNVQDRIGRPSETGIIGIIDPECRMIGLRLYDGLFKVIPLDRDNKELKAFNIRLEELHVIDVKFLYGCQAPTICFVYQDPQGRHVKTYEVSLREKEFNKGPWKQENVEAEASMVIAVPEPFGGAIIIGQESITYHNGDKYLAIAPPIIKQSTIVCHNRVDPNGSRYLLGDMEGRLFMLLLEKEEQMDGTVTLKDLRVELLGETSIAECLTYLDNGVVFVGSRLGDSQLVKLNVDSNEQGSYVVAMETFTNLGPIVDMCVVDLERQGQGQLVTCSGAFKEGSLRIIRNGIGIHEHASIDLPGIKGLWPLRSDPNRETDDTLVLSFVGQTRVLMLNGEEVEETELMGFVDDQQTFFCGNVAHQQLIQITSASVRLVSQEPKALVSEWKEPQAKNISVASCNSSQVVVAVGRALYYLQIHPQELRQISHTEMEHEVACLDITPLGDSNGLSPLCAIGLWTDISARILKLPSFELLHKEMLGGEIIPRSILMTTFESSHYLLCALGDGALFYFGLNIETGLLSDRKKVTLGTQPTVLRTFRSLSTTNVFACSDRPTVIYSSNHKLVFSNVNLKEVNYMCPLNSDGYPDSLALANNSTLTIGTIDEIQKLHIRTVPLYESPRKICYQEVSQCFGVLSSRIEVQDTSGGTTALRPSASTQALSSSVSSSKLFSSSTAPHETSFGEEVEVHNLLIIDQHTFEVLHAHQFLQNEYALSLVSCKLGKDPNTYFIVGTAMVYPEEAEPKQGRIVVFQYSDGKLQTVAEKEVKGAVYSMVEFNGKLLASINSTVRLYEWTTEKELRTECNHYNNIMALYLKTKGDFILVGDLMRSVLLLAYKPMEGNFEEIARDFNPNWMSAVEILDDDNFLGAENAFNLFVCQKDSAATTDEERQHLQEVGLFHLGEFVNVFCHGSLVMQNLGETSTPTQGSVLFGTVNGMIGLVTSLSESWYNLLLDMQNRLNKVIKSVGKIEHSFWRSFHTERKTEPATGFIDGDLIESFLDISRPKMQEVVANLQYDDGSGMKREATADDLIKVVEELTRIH

SMILES: O=C1CCC(N2C(=O)c3ccccc3C2=O)C(=O)N1 (centres unmarked) [Compound 1, thalidomide, reference compound]
- logFC ([1]; degron residues 146/147/149/150/152/153/154/155/167: FADQGAQFL): -3.13
- logFC ([1]; degron residues 146/147/149/150/152/153/154/155/167: FADQGARFL): -2.69
- logFC ([1]; degron residues 146/147/149/150/152/153/154/155/167: FADQGASFL): -3.41
- logFC ([1]; degron residues 146/147/149/150/152/153/154/155/167: FADQGATFL): -2.79
- logFC ([1]; degron residues 146/147/149/150/152/153/154/155/167: FADQGAVFL): -2.29
- logFC ([1]; degron residues 146/147/149/150/152/153/154/155/167: FADQGAWFL): -2.86
- logFC ([1]; degron residues 146/147/149/150/152/153/154/155/167: FADQGAYFL): -2.43
- logFC ([1]; degron residues 146/147/149/150/152/153/154/155/167: FADVGAAFL): -1.13
- logFC ([1]; degron residues 146/147/149/150/152/153/154/155/167: FADVGACFL): -2.56
- logFC ([1]; degron residues 146/147/149/150/152/153/154/155/167: FADVGADFL): -2.99
- logFC ([1]; degron residues 146/147/149/150/152/153/154/155/167: FADVGAEFL): -2.38
- logFC ([1]; degron residues 146/147/149/150/152/153/154/155/167: FADVGAFFL): -1.98
- logFC ([1]; degron residues 146/147/149/150/152/153/154/155/167: FADVGAGFL): -2.06
- logFC ([1]; degron residues 146/147/149/150/152/153/154/155/167: FADVGAHFL): -2.25
- logFC ([1]; degron residues 146/147/149/150/152/153/154/155/167: FADVGAIFL): -1.83
- logFC ([1]; degron residues 146/147/149/150/152/153/154/155/167: FADVGAKFL): -1.45
- logFC ([1]; degron residues 146/147/149/150/152/153/154/155/167: FADVGALFL): -2.47
- logFC ([1]; degron residues 146/147/149/150/152/153/154/155/167: FADVGAMFL): -2.29
- logFC ([1]; degron residues 146/147/149/150/152/153/154/155/167: FADVGANFL): -2.15
- logFC ([1]; degron residues 146/147/149/150/152/153/154/155/167: FADVGAPFL): -0.92
- logFC ([1]; degron residues 146/147/149/150/152/153/154/155/167: FADVGAQFL): -1.67
- logFC ([1]; degron residues 146/147/149/150/152/153/154/155/167: FADVGARFL): -1.19
- logFC ([1]; degron residues 146/147/149/150/152/153/154/155/167: FADVGASFL): -1.27
- logFC ([1]; degron residues 146/147/149/150/152/153/154/155/167: FADVGATFL): -1.78
- logFC ([1]; degron residues 146/147/149/150/152/153/154/155/167: FADVGAVFL): -2.08
- logFC ([1]; degron residues 146/147/149/150/152/153/154/155/167: FADVGAWFL): -2.99
- logFC ([1]; degron residues 146/147/149/150/152/153/154/155/167: FADVGAYFL): -2.07
- Log2FC ([1]; degron residues 146/147/149/150/152/153/154/155/167: FQEIGAPFL): 3.7224
- Log2FC ([1]; degron residues 146/147/149/150/152/153/154/155/167: FQEIGARFL): 3.7041
- Log2FC ([1]; degron residues 146/147/149/150/152/153/154/155/167: FQEIGASFL): 3.7484
- Log2FC ([1]; degron residues 146/147/149/150/152/153/154/155/167: FQEVGAQFL): 3.7719
- Log2FC ([1]; degron residues 146/147/149/150/152/153/154/155/167: FQEVGARFL): 3.7061
- Log2FC ([1]; degron residues 146/147/149/150/152/153/154/155/167: FQEVGATFL): 3.7446
- Log2FC ([1]; degron residues 146/147/149/150/152/153/154/155/167: FQEVGAVFL): 3.7106
- Log2FC ([1]; degron residues 146/147/149/150/152/153/154/155/167: FQNIGAIFL): 3.8114
- Log2FC ([1]; degron residues 146/147/149/150/152/153/154/155/167: FQNIGAPFL): 3.7088
- Log2FC ([1]; degron residues 146/147/149/150/152/153/154/155/167: FQNIGATFL, listed as Thal): 3.867
- Log2FC ([1]; degron residues 146/147/149/150/152/153/154/155/167: FQNIGATFL, listed as Thalidomide): 3.8667
- Log2FC ([1]; degron residues 146/147/149/150/152/153/154/155/167: FQPIGACFL): 3.7711
- Log2FC ([1]; degron residues 146/147/149/150/152/153/154/155/167: FQPIGADFL, listed as Thal): 3.806
- Log2FC ([1]; degron residues 146/147/149/150/152/153/154/155/167: FQPIGADFL, listed as Thalidomide): 3.8059
- Log2FC ([1]; degron residues 146/147/149/150/152/153/154/155/167: FQPIGAIFL): 3.7924
- Log2FC ([1]; degron residues 146/147/149/150/152/153/154/155/167: FQPIGASFL (QPIS), listed as Thal): 3.79
- Log2FC ([1]; degron residues 146/147/149/150/152/153/154/155/167: FQPIGASFL (QPIS), listed as Thalidomide): 3.7900
- Log2FC ([1]; degron residues 146/147/149/150/152/153/154/155/167: FQPVGAEFL): 3.7612
- Log2FC ([1]; degron residues 146/147/149/150/152/153/154/155/167: FQPVGAKFL, listed as Thal): 3.962
- Log2FC ([1]; degron residues 146/147/149/150/152/153/154/155/167: FQPVGAKFL, listed as Thalidomide): 3.9618
- Log2FC ([1]; degron residues 146/147/149/150/152/153/154/155/167: FQPVGAPFL, listed as Thal): 3.872
- Log2FC ([1]; degron residues 146/147/149/150/152/153/154/155/167: FQPVGAPFL, listed as Thalidomide): 3.8717
- Log2FC ([1]; degron residues 146/147/149/150/152/153/154/155/167: FQPVGATFL): 3.7941
- Log2FC ([1]; degron residues 146/147/149/150/152/153/154/155/167: FQPVGAVFL): 3.7460
- Log2FC ([1]; degron residues 146/147/149/150/152/153/154/155/167: LQPIGFVCL): 3.7517
- Dmax [2]: 82%
